{"source": "patent US8569356B2", "about": "“Cyclin dependent kinase inhibitors” (University of Florida Research Foundation, Inc., priority 2005, dated 2013)", "key": {"[1]": {"test_system": "BT549 breast cancer cells", "assay": "3H-thymidine incorporation assay, BT549", "format": "cell-based, human", "method": "FIG. 4. Compounds #1, #7, and #11 inhibit proliferation of BT549 breast cancer cells. BT549 cells were treated for 24 hours with the indicated “Pocket #1” compounds. The effect of treatment on cell proliferation was quantitated by measuring the amount of ^3H-Thymidine incorporated into cellular DNA over a two hour time interval. The results are presented as the average of triplicate determinations ±standard deviation.\nFIG. 5. Compounds predicted to bind to “Pocket #2” inhibit proliferation of BT549 breast cancer cells. BT549 cells were treated for 24 hours with the indicated “Pocket #2” compounds. The effect of treatment on cell proliferation was quantitated by measuring the amount of ^3H-Thymidine incorporated into cellular DNA over a two hour time interval. The results are presented as the average of triplicate determinations ±standard deviation.\nAdditional ^3H-thymidine incorporation assays were performed to determine whether the “Pocket #2” binding drugs (see Table 2) inhibit cell proliferation at concentrations lower than 100 μM."}, "[2]": {"test_system": "prostate cancer cell line, Gs-α", "assay": "Matrigel cell invasion assay", "format": "cell-based", "details": "Matrigel invasion chambers, 36 h", "method": "A cell invasion assay was performed on an aggressive prostate cancer cell line, Gs-α, to determine the effects of selected compounds that inhibit cell proliferation.\nThe experiment was performed in six-well Matrigel two-tier invasion chambers (Collaborative Biomedical Products, Bedford, Mass., USA), using a protocol similar to that used successfully by others (see, e.g., Chien J, Wong E, Nikes E et al., Oncogene 1999; 18: 3376-3382, incorporated herein by reference). […]\nWhile the membranes were still wet in culture dishes, the GFP-positive cells on the entire membrane were counted under fluorescent illumination. […] The total number of cells on the entire gel was counted. The data from invasion assay were corrected for cell growth during experimental periods as follows: the experimental cells were plated at a density of 10^5 cells per well in six-well control inserts in chemoattractant medium and increase in cell number were determined after 48 h. […] The results were expressed as mean±standard deviation. […]\nSignificance of differences in Percent Invasion according to treatment (or transfection of Metafectene vehicle alone) were assessed by Student's t-test."}, "PC3 prostate tumor cells": {"test_system": "PC3 prostate tumor cells", "assay": "Mouse xenograft tumor model, PC3", "format": "in vivo, SCID mice", "details": "intratumoral, 1:50 dilution (2 mM), compared with 1:50 DMSO in PBS in two controls", "method": "A compound of the invention (Compound 1) was tested in a mouse xenograft tumor model to determine whether the compound can inhibit tumor growth in vivo.\nSCID mice were subcutaneously implanted with PC3 prostate tumor cells in the flank and were administered intratumorally with controls (DMSO) or a test compound.\nThe two control animals were sacrificed when the total tumor volume (L×W×H) exceeded 1.5 cc. The treated animal was sacrificed because a small but significant skin ulceration was developing over the tumor."}, "[3]": {"test_system": "multiple human cancer cell lines", "details": "NCI screen, read-out: average 50% inhibitory concentration (IC50), proliferation; cited from earlier work"}, "PC-3 tumor cells": {"test_system": "PC-3 tumor cells", "assay": "PC-3 tumor in mice, intratumoral injection with CD44 RNA interference", "format": "in vivo", "details": "combined with CD44 RNA interference, after 11 days of injection, three treated animals", "method": "The effect of 4-tert-Butyl-2-nitroaniline when combined with CD44 RNA interference was therefore investigated.\nSeven-wk-old mice (Jackson Laboratory, Bar Harbor, Me.) were injected in the right flank with 2×10^6 PC-3 tumor cells in 500 μl liquid Matrigel. […] By 14 days after injection, a tumor mass was palpable and at 27 days, 4-tert-Butyl-2-nitroaniline and CD44 RNAi therapy commenced. Gene transfection was controlled for quantitation by injecting a constant 10 μg of vector. This approach involved mixing volume of DNA containing 10 μg of pU6BS (and subsequently pTracer) plasmid having the CD44 RNAi construct with 10 μl of Metafectene before injection into the tumor. Both Metafectene and DNA were diluted separately in 100 μl of sterile serum-free RPMI before mixing (see, e.g., Iczkowski K A, Omara-Opyene A L, and Klösel R., Molecular Biotechnology 2004; 28:97-103). The mixture was then allowed to stand for 30 minutes before injection to allow the formation of Metafectene:DNA complexes.\nIntra-tumoral injection was performed five times weekly, angling the needle at different areas of the tumor during a given injection as well as varying the injection site for each injection occasion. Control animals were injected with 100 μl consisting of 50 μl empty vector/medium plus 50 μl of Metafectene."}, "NMuMG cells": {"test_system": "NMuMG cells", "assay": "3H-thymidine incorporation assay, NMuMG", "format": "cell-based, mouse", "details": "100 μM, 24 hours", "excerpt": "(§1) FIG. 2. In silico molecular docking and preliminary analysis of potential Cyclin/Cdk2 inhibitors. (A) Cyclin A/Cdk2/p27 complex with spheres docked into the binding pocket (Pocket #1) and the pocket enclosed in a scoring grid (rectangular box). (B) Binding cleft shown filled with spheres, the top 10 hits superimposed into the binding pocket (All Hits), and the predicted mode of binding of individual hits in the Cyclin A/Cdk2/p27 pocket (Hits #3-10). (C) NMuMG (black bars) or DU145 cells (open bars) were treated for 24 hours with 100 μM of the indicated compounds and ^3H-thymidine incorporation was measured to assess rates of cell proliferation. Roscovitine is a known Cdk inhibitor and was included as a positive control. DMSO (0.1%) was included as a vehicle control. (D) Morphological change induced by 100 μM Hit #10 in NMuMG and DU145 cells after treatment for 24 hours.\n(§2) Labeled thymidine (^3H-thymidine) incorporation assays were used to screen compounds at a concentration of 100 μM using mouse mammary epithelial cells and the human prostate cancer cell line DU145.\nSeven of the molecules identified in Example 1 as having the top estimated binding energies (Hits/Compounds 3, 4, 6, 7, 8, 9, and 10) were obtained and tested for their ability to induce cell cycle arrest of mouse mammary NMuMG and DU145 human prostatic carcinoma cell lines in ^3H-thymidine incorporation assays (FIG. 2C). […] Thus at least five of the ten top-ranked compounds are cell permeable and induce an appreciable arrest of cancer cell proliferation."}, "DU145 cells": {"test_system": "DU145 cells", "assay": "3H-thymidine incorporation assay, DU145", "format": "cell-based, human", "details": "100 μM, 24 hours", "excerpt": "as §1, §2\nHuman prostate cancer DU145 cells were plated at 30,000 cells per well in 24-well plates and allowed to attach for 24 hours. The cells were treated for 24 hours with either 100 μM of the indicated compounds, 0.1% DMSO as a vehicle control, or left untreated. The cells were pulsed with ^3H-thymidine for two hours. The cells were fixed in 10% trichloroacetic acid and washed a total of three times with 10% trichloroacetic acid. The ^3H-thymidine-labeled DNA was dissolved in 0.2% NaOH, mixed with scintillation fluid, and the associated radioactivity quantitated using a scintillation counter. These experiments were performed in triplicate and the results are presented as the average thymidine incorporation±standard deviation. […]"}, "Cdk1 [4]": {"molecular_target": "T1, Cdk1 (Homo sapiens, UniProt P06493)", "T1 construct": "endogenous in cells; host or cells: BT549", "T1 sequence (P06493 whole entry)": "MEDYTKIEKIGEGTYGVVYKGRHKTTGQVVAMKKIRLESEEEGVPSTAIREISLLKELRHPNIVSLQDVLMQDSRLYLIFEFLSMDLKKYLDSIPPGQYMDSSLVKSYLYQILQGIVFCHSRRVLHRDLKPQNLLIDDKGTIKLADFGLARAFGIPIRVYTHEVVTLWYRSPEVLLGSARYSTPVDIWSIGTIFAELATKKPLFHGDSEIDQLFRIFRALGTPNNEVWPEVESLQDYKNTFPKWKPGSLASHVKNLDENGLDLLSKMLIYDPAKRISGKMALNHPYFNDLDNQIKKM", "assay": "Immunofluorescence microscopy of Cdk1 distribution", "format": "cell-based", "excerpt": "(§3) It appears that compounds of the invention can cause redistribution of Cdk1, Cdk2, and Cdk4 in cells."}, "Cdk4 [5]": {"molecular_target": "T2, Cdk4 (Homo sapiens, UniProt P11802)", "T2 construct": "endogenous in cells; host or cells: BT549", "T2 sequence (P11802 whole entry)": "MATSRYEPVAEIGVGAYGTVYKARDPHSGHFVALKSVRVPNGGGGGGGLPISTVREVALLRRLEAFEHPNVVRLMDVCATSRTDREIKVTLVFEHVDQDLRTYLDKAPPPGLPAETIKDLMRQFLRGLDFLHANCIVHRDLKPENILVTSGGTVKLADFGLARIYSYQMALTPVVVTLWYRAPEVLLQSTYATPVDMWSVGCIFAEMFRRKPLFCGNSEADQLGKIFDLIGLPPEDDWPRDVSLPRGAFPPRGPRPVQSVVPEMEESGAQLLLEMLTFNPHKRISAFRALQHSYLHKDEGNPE", "assay": "Immunofluorescence microscopy of Cdk4 distribution", "format": "cell-based", "excerpt": "as §3"}, "Cdk1 [6]": {"molecular_target": "T1, Cdk1", "assay": "Immunoblot of cellular Cdk1 level in BT549 cells", "format": "cell-based", "details": "24 or 48 hours, time- and dose-dependent", "method": "(§4) BT549 cells were treated with the indicated Pocket #1 compounds for the indicated intervals. Cell lysates were prepared and the amounts of Cdk1, Cdk2, and Cdk4 were determined by immunoblot. Actin staining serves as a loading control. DMSO serves as a vehicle control.\n(§5) Human breast cancer BT549 cells were treated as indicated for 24 or 48 hours with either 0.2% DMSO as a vehicle control, or compounds #3, #4, and #7 at the indicated concentrations. Cell lysates were prepared, normalized for protein content, resolved by SDS-PAGE and the proteins transferred to nitrocellulose. Levels of Cdk1, Cdk2, and Cdk4 were measured using primary antibodies specific for these proteins, followed by alkaline-phosphatase-conjugated secondary antibodies and colorimetric detection using the substrate NBT/BCIP."}, "Cdk4 [7]": {"molecular_target": "T2, Cdk4", "assay": "Immunoblot of cellular Cdk4 level in BT549 cells", "format": "cell-based", "details": "24 or 48 hours, time- and dose-dependent", "method": "as §4, §5"}, "Cdk2 [8]": {"molecular_target": "T3, Cdk2 (Homo sapiens, UniProt P24941)", "assay": "Immunofluorescence microscopy of Cdk2 distribution", "format": "cell-based", "parameters": "endogenous in cells", "details": "MDA-MB-468 breast cancer cells, 24 hours", "method": "FIG. 6. Immunofluorescence microscopy of cellular distribution of Cdks in the absence (upper panels) and presence (lower panels) of a compound of the invention. MDA-MB-468 breast cancer cells were treated with the indicated concentration of pocket 1 compound #7 for 24 hours. Immunofluorescence microscopy was performed using an antibody to Cdk2. […] These aggregates are most apparent at sites of cell-cell contact.\nas §3"}, "Cdk2 [9]": {"molecular_target": "T3, Cdk2", "assay": "Immunoblot of cellular Cdk2 level in BT549 cells", "format": "cell-based", "parameters": "endogenous in cells; host or cells: BT549", "details": "24 or 48 hours, time- and dose-dependent", "method": "as §4, §5"}}, "note": "Entries after “also recorded” stand apart in the source; their conditions may differ."}
{"smiles": "Cc1ccc(C(=O)/C=C/c2ccccc2)s1", "note": "[Compound 1]", "values": [{"measurement": "potency compared with Compound 7", "setting": "[1]", "value": "more potent than Compound 7"}, {"measurement": "effective concentration for inhibition of proliferation", "setting": "[1]; 24 hours", "value": "low micromolar concentrations"}, {"measurement": "inhibition of proliferation (3H-thymidine incorporation)", "setting": "[1]; 24 hours", "value": "inhibit the proliferation"}, {"measurement": "cell invasiveness in vitro", "setting": "[2]", "value": "inhibit cell invasiveness"}, {"measurement": "tumor growth", "setting": "PC3 prostate tumor cells", "value": "markedly reduced tumor growth"}]}
{"smiles": "COc1ccc2oc3cccc(NN(C)C)c3c(=O)c2c1", "note": "[Compound 2, 1-(N′,N′-Dimethyl-hydrazino)-7-methoxy-xanthen-9-one]", "values": [{"measurement": "IC50", "setting": "[3]", "value": 12, "unit": "µM"}]}
{"smiles": "CC(C)(C)c1ccc(N)c([N+](=O)[O-])c1", "note": "[Compound 3, 4-tert-Butyl-2-nitroaniline]", "values": [{"measurement": "decrease of tumor volume", "setting": "PC-3 tumor cells", "value": "more than 50%"}]}
{"smiles": "COc1ccc(C(C#N)=Cc2ccccn2)cc1", "note": "[Compound 7, 2-(4-methoxyphenyl)-3-pyridin-2-yl-prop-2-enenitrile]", "values": [{"measurement": "inhibition of cell proliferation (3H-thymidine incorporation)", "setting": "NMuMG cells", "value": "significantly inhibited proliferation"}, {"measurement": "inhibition of cell proliferation (3H-thymidine incorporation)", "setting": "DU145 cells", "value": "significantly inhibited proliferation"}, {"measurement": "inhibition of proliferation (3H-thymidine incorporation)", "setting": "[1]; 24 hours", "value": "inhibit the proliferation"}, {"measurement": "Cdk1 localization", "setting": "Cdk1 [4]", "value": "aggregates appear primarily at cell-cell junctions"}, {"measurement": "Cdk4 localization", "setting": "Cdk4 [5]", "value": "aggregates appear on top of the nuclei"}, {"measurement": "cellular level of Cdk1", "setting": "Cdk1 [6]", "value": "Decrease the Cellular Levels"}, {"measurement": "cellular level of Cdk4", "setting": "Cdk4 [7]", "value": "Decrease the Cellular Levels"}, {"measurement": "Cdk2 localization", "setting": "Cdk2 [8]", "value": "aggregates appear primarily at cell-cell junctions; also recorded: change in Cdk2 localization consistent with aggregation"}, {"measurement": "cellular level of Cdk2", "setting": "Cdk2 [9]", "value": "Decrease the Cellular Levels"}]}
{"smiles": "c1ccc(OSOc2ccccc2)cc1", "note": "[Compound 10]", "values": [{"measurement": "inhibition of cell proliferation (3H-thymidine incorporation)", "setting": "NMuMG cells", "value": "significantly inhibited proliferation"}, {"measurement": "morphological change", "setting": "NMuMG cells", "value": "dramatic morphological change"}, {"measurement": "inhibition of cell proliferation (3H-thymidine incorporation)", "setting": "DU145 cells", "value": "significantly inhibited proliferation"}, {"measurement": "morphological change", "setting": "DU145 cells", "value": "dramatic morphological change"}]}
{"smiles": "O=C(N/N=C\\c1cc(Br)ccc1O)N/N=C/c1cc(Br)ccc1O", "note": "[VDW9]", "values": [{"measurement": "inhibition of proliferation (3H-thymidine incorporation)", "setting": "[1]; 2 μM, 24 hours", "value": "inhibited proliferation"}, {"measurement": "inhibition of proliferation (3H-thymidine incorporation)", "setting": "[1]; 10 μM, 24 hours", "value": "inhibited proliferation"}]}
